Patent publication US20250257064A1, “TRIFLUOROMETHYL-SUBSTITUTED SULFONAMIDE AS BCL-2-SELECTIVE INHIBITOR” (Chia Tai Tianqing Pharmaceutical Group Co., Ltd., priority 2018, published 2025)

Tests used:
BCL-XL/BAK = target: T1, BCL-XL/BAK (Homo sapiens, UniProt Q07817); experiment: Screening on inhibitory activity for BCL-XL/BAK binding (Cisbio HTRF kit)
T1 construct: purchased Cisbio
Procedure: 1.2 Screening on Inhibitory Activity for BCL-XL/BAK Binding
300 nM Tag1-BCL-XL protein stock solution and 10 μM Tag2-BAK protein stock solution were diluted to 2 nM and 80 nM respectively with dilution buffer in kit (model: BCL-XL/BAK (BH3) BINDING ASSAY KITS, from Cisbio). 5 μL of Tag1-BCL-XL protein diluent was added to each well, then different compounds dissolved with DMSO were added to the wells with a nanoliter pipettor, allowing the final compound concentrations to be 2000 nM to 0.488 nM (4-fold gradient for 7 concentrations in total). Blank control wells (without enzyme) and negative control wells (with enzyme, plus vehicle DMSO) were set, and 2 replicate wells were set. Finally, 5 μL of Tag2-BAK protein diluent was added to each well, and the mixture was mixed well by centrifugation and incubated at 25° C. for 15 min. 100× anti-Tag1-Eu^3+ and 100× anti-Tag2-XL665 were both diluted to 1× working concentration with the detection buffer in the kit. Anti-Tag1-Eu^3+ and anti-Tag2-XL665 were mixed well in a 1:1 ratio, and the mixture was added to wells at 5 µL/well, and incubated at 25° C. for 2 h or more. The plate was read using a PE Envision multi-functional microplate reader (excitation: […], emission: 665 nm) and IC50 (shown in table 1) was calculated by four-parameter fitting.

BCL-2/BAK = target: T2, BCL-2/BAK (Homo sapiens, UniProt P10415); experiment: Screening on inhibitory activity for BCL-2/BAK binding (Cisbio HTRF kit)
T2 construct: purchased Cisbio
T2 sequence (P10415 whole entry, species assumed): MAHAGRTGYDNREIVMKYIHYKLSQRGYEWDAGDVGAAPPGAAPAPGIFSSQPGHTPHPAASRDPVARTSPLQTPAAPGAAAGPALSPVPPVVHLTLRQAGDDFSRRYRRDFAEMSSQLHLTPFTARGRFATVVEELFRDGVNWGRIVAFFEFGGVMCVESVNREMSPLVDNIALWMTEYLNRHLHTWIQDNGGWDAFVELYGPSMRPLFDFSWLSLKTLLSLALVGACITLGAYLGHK
Procedure: 1.1 Screening on Inhibitory Activity for BCL-2/BAK Binding
500 nM Tag1-BCL-2 protein stock solution and 20 μM Tag2-BAK protein stock solution were diluted to 5 nM and 120 nM respectively with dilution buffer in kit (model: BCL-2/BAK (BH3) BINDING ASSAY KITS, from Cisbio). 5 μL of Tag1-BCL-2 protein diluent was added to each well, then different compounds dissolved with DMSO were added to the wells with a nanoliter pipettor, allowing the final compound concentrations to be 200 nM to 0.0488 nM (4-fold gradient for 7 concentrations in total). Blank control wells (without enzyme) and negative control wells (with enzyme, plus vehicle DMSO) were set, and 2 replicate wells were set. Finally, 5 μL of Tag2-BAK protein diluent was added to each well, and the mixture was mixed well by centrifugation and incubated at 25° C. for 15 min. 100× anti-Tag1-Eu^3+ and 100× anti-Tag2-XL665 were both diluted to 1× working concentration with the detection buffer in the kit. Anti-Tag1-Eu^3+ and anti-Tag2-XL665 were mixed well in a 1:1 ratio, and the mixture was added to wells at 5 μL/well, and incubated at 25° C. for 2 h or more. The plate was read using a PE Envision multi-functional microplate reader (excitation: […], emission: 665 nm) and IC50 (shown in table 1) was calculated by four-parameter fitting.

RS4;11 cells = experiment: Inhibitory effect on proliferation of RS4;11 cells (CCK-8); assay type: cell-based, human; conditions: Homo sapiens, RS4-11, 72 h
Procedure: Experimental Example 2: Inhibitory Effect of Compounds on Proliferation of RS4;11 Cells
RS4;11 cells (from Nanjing Cobioer) in logarithmic growth phase and good cell condition were added to a centrifuge tube and centrifuged at 1500 rpm for 3 min in a low speed centrifuge. The supernatant was discarded, and 5 mL of complete medium (RPMI basic medium+10 wt % fetal bovine serum (FBS)) was added using a pipette for cell resuspension. The cells were counted using a cell counter, diluted with complete medium to a cell density of 2×10^5 cells/mL, and added with an equivalent amount of RPMI basic medium to adjust the serum concentration to 5% and the cell density to 1×10^5 cells/mL for plate seeding. The cells were seeded on a 96-well plate at 100 μL/well using a pipettor, and incubated in an incubator at 37° C., 5% CO2 with saturated humidity. After 24 h of incubation, compounds were loaded using a nanoliter pipettor, 2 duplicate wells were set for each concentration, and cells without compound were used as negative controls. […] Inhibition rate (%)=(mean value of negative control group—mean value of experimental group)/(mean value of negative control group—mean value of blank group)×100%. A dose-response curve was fitted by four-parameter analysis, with the logarithm of compound concentration serving as abscissa and inhibition rate serving as ordinate, so that IC50 was calculated (FIG. 2).

T1 sequence (Q07817 whole entry, species assumed): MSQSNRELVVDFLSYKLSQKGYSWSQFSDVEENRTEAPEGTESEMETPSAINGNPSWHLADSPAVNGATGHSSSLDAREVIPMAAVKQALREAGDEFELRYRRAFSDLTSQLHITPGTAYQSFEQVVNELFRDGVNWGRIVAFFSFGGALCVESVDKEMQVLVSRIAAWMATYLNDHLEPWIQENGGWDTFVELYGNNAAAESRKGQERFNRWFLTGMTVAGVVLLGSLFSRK

Compound | IC50 (BCL-XL/BAK) | IC50 (BCL-2/BAK) | IC50 (RS4;11 cells)
CC1(C)CCC(CN2CCN(c3ccc(C(=O)NS(=O)(=O)c4ccc(NC[C@@H]5CCOC5)c([N+](=O)[O-])c4)c(Oc4cnc5[nH]ccc5c4)c3)CC2)=C(c2ccc(C(F)(F)F)cc2Cl)C1 [Compound 36-1, (S)-4-(4-{[2-(2-chloro-4-trifluoromethylphenyl)-4,4-dimethylcyclohex-1-enyl]methyl}-piperazin-1-yl)-N-({3-nitro-4-[((tetrahydrofuran-3-yl)methyl)amino]phenyl}sulfonyl)-2-(1H-pyrrolo[2,3-b]pyridin-5-yloxy)-benzamide] | 157 nM | 1.78 nM | –
CC1(C)CCC(CN2CCN(c3ccc(C(=O)NS(=O)(=O)c4ccc(NCC5CCOCC5)c([N+](=O)[O-])c4)c(Oc4cnc5[nH]ccc5c4)c3)CC2)=C(c2ccc(C(F)(F)F)c(Cl)c2)C1 [Compound 4-1, 4-(4-{[2-(3-chloro-4-trifluoromethylphenyl)-4,4-dimethylcyclohex-1-enyl]methyl}-piperazin-1-yl)-N-({3-nitro-4-[(tetrahydro-2H-pyran-4-ylmethyl)amino]phenyl}sulfonyl)-2-(1H-pyrrolo[2,3-b]pyridin-5-yloxy)-benzamide] | > 2000 nM | 0.8 nM | –
CC1(C)CCC(CN2CCN(c3ccc(C(=O)NS(=O)(=O)c4ccc(NCC5CN(C(=O)CC#N)CCO5)c([N+](=O)[O-])c4)c(Oc4cnc5[nH]ccc5c4)c3)CC2)=C(c2ccc(C(F)(F)F)cc2Cl)C1 (centres unmarked) [Compound 51-1, 4-(4-{[2-(2-chloro-4-trifluoromethylphenyl)-4,4-dimethylcyclohex-1-enyl]methyl}-piperazin-1-yl)-N-({3-nitro-4-[((4-(2-cyanoacetyl)morpholin-2-yl)methyl)amino]phenyl}sulfonyl)-2-(1H-pyrrolo[2,3-b]pyridin-5-yloxy)-benzamide] | – | 1.9 nM | 1.1 nM
CC(=O)N1CCO[C@@H](CNc2ccc(S(=O)(=O)NC(=O)c3ccc(N4CCN(CC5=C(c6ccc(C(F)(F)F)cc6Cl)CC(C)(C)CC5)CC4)cc3Oc3cnc4[nH]ccc4c3)cc2[N+](=O)[O-])C1 [Compound 61-1, (S)-4-(4-{[2-(2-chloro-4-trifluoromethylphenyl)-4,4-dimethylcyclohex-1-enyl]methyl}-piperazin-1-yl)-N-({3-nitro-4-[((4-acetylmorpholin-2-yl)methyl)amino]phenyl}sulfonyl)-2-(1H-pyrrolo[2,3-b]pyridin-5-yloxy)-benzamide] | – | 1.52 nM | 3.2 nM
CC1(C)CCC(CN2CCN(c3ccc(C(=O)NS(=O)(=O)c4ccc(NC[C@@H]5CCCO5)c([N+](=O)[O-])c4)c(Oc4cnc5[nH]ccc5c4)c3)CC2)=C(c2ccc(C(F)(F)F)cc2Cl)C1 [Compound 37-1, (S)-4-(4-{[2-(2-chloro-4-trifluoromethylphenyl)-4,4-dimethylcyclohex-1-enyl]methyl}-piperazin-1-yl)-N-({3-nitro-4-[((tetrahydrofuran-2-yl)methyl)amino]phenyl}sulfonyl)-2-(1H-pyrrolo[2,3-b]pyridin-5-yloxy)-benzamide] | 142 nM | 1.59 nM | –
CN(C)CC(=O)N1CCCC(CNc2ccc(S(=O)(=O)NC(=O)c3ccc(N4CCN(CC5=C(c6ccc(C(F)(F)F)cc6Cl)CC(C)(C)CC5)CC4)cc3Oc3cnc4[nH]ccc4c3)cc2[N+](=O)[O-])C1 (centres unmarked) [Compound 60-1] | – | 1.1 nM | 1.3 nM
CN(C)CC(=O)N1CCC(CNc2ccc(S(=O)(=O)NC(=O)c3ccc(N4CCN(CC5=C(c6ccc(C(F)(F)F)cc6Cl)CC(C)(C)CC5)CC4)cc3Oc3cnc4[nH]ccc4c3)cc2[N+](=O)[O-])CC1 [Compound 59-1] | – | 1.1 nM | 1 nM
CC1(C)CCC(CN2CCN(c3ccc(C(=O)NS(=O)(=O)c4ccc(NCCC5CN(S(C)(=O)=O)CCO5)c([N+](=O)[O-])c4)c(Oc4cnc5[nH]ccc5c4)c3)CC2)=C(c2ccc(C(F)(F)F)cc2Cl)C1 (centres unmarked) [Compound 21-1, 4-(4-{[2-(2-chloro-4-trifluoromethylphenyl)-4,4-dimethylcyclohex-1-enyl]methyl}-piperazin-1-yl)-N-({3-nitro-4-[(2-(4-(methylsulfonyl)morpholin-2-yl)ethyl)amino]phenyl}sulfonyl)-2-(1H-pyrrolo[2,3-b]pyridin-5-yloxy)-benzamide] | – | 2.4 nM | 4.1 nM
COCC(=O)N1CCOC(CCNc2ccc(S(=O)(=O)NC(=O)c3ccc(N4CCN(CC5=C(c6ccc(C(F)(F)F)cc6Cl)CC(C)(C)CC5)CC4)cc3Oc3cnc4[nH]ccc4c3)cc2[N+](=O)[O-])C1 (centres unmarked) [Compound 72-1, 4-(4-{[2-(2-chloro-4-trifluoromethylphenyl)-4,4-dimethylcyclohex-1-enyl]methyl}-piperazin-1-yl)-N-({3-nitro-4-[(2-(4-(2-methoxyacetyl)morpholin-2-yl)ethyl)amino]phenyl}sulfonyl)-2-(1H-pyrrolo[2,3-b]pyridin-5-yloxy)-benzamide] | 122 nM | 2.32 nM | –
4-(4-{[2-(2-chloro-4-trifluoromethylphenyl)-4,4-dimethylcyclohex-1-enyl]methyl}-piperazin-1-yl)-N-({3-nitro-4-[(4-((trifluoromethyl) sulfonyl)morpholin-2-yl)methyl)amino]phenyl}sulfonyl)-2-(1H-pyrrolo[2,3-b]pyridin-5-yloxy)-benzamide [Compound 56-1] | 381 nM | 3.55 nM | –
CC1(C)CCC(CN2CCN(c3ccc(C(=O)NS(=O)(=O)c4ccc(NCC5CCOCC5)c([N+](=O)[O-])c4)c(Oc4cnc5[nH]ccc5c4)c3)CC2)=C(c2ccc(Cl)cc2C(F)(F)F)C1 [Compound 3-1, 4-(4-{[2-(4-chloro-2-trifluoromethylphenyl)-4,4-dimethylcyclohex-1-enyl]methyl}-piperazin-1-yl)-N-({3-nitro-4-[(tetrahydro-2H-pyran-4-ylmethyl)amino]phenyl}sulfonyl)-2-(1H-pyrrolo[2,3-b]pyridin-5-yloxy)-benzamide] | > 2000 nM | 0.86 nM | –
CC1(C)CCC(CN2CCN(c3ccc(C(=O)NS(=O)(=O)c4ccc(NCCC5CCCOC5)c([N+](=O)[O-])c4)c(Oc4cnc5[nH]ccc5c4)c3)CC2)=C(c2ccc(C(F)(F)F)cc2Cl)C1 (centres unmarked) [Compound 45-1, 4-(4-{[2-(2-chloro-4-trifluoromethylphenyl)-4,4-dimethylcyclohex-1-enyl]methyl}-piperazin-1-yl)-N-({3-nitro-4-[((2-tetrahydropyran-3-yl)ethyl)amino]phenyl}sulfonyl)-2-(1H-pyrrolo[2,3-b]pyridin-5-yloxy)-benzamide] | 243 nM | 2.18 nM | –
CCN1CCOCC1CNc1ccc(S(=O)(=O)NC(=O)c2ccc(N3CCN(CC4=C(c5ccc(C(F)(F)F)cc5Cl)CC(C)(C)CC4)CC3)cc2Oc2cnc3[nH]ccc3c2)cc1[N+](=O)[O-] (centres unmarked) [Compound 24-1, 4-(4-{[2-(2-chloro-4-trifluoromethylphenyl)-4,4-dimethylcyclohex-1-enyl]methyl}-piperazin-1-yl)-N-({3-nitro-4-[((4-ethylmorpholin-3-yl)methyl)amino]phenyl}sulfonyl)-2-(1H-pyrrolo[2,3-b]pyridin-5-yloxy)-benzamide] | 556 nM | 5.11 nM | –
